Holding throughout (test): area under dose-response curve of surviving fraction (unscaled, Aref=0) (surviving fraction x log10(nM)); higher = more resistant
Holding throughout (settings): exposure time: 5 days; dose range 0.5-1000 nM

Compound in experiment [1]: C[C@@H](Oc1cc(-c2cnn(C3CCNCC3)c2)cnc1N)c1c(Cl)ccc(F)c1Cl
In short, it runs like this:
(§1)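 Tumour cell lines in 384-well plates were exposed to eight inhibitor concentrations, from 0.5 to 1000 nM, for five days, and viability was read by CellTiter-Glo luminescence in three screens per line. Signals were normalised to DMSO-only wells, and 3-parameter logistic regression in the drc R package fitted dose-response survival curves to the surviving fractions. Area under the curve is given as the unscaled activity area. That area is taken over log10 dose with Aref = 0.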

Compound in experiment [2]: CNCc1ccc(-c2[nH]c3cc(F)cc4c3c2CCNC4=O)cc1
Summed up:
as §1

Compound in experiment [3]: CCn1c(C(=O)N(C2CC2)C2CC2)cc2c3c(ncn3C)c(Nc3cc(C)n(C)n3)nc21
In short, it runs like this: as §1

Compound in experiment [4]: CN1CCN(c2nc(C3=C(c4c[nH]c5ccccc45)C(=O)NC3=O)c3ccccc3n2)CC1 [SOTRASTAURIN/AEB071]
In short, it runs like this:
as §1

Compound in experiment [5]: Oc1nc(-c2ccc(C(F)(F)F)cc2)nc2c1CSCC2 [XAV-939]
Summed up:
as §1

Compound in experiment [6]: COc1cc2c(Oc3ccc(NC(=O)C4(C(=O)Nc5ccc(F)cc5)CC4)cc3F)ccnc2cc1OCCCN1CCOCC1 [FORETINIB]
In short, it runs like this: as §1

Compound in experiment [7]: C[C@]12CC[C@H](O)CC1=CC[C@@H]1[C@@H]2CC[C@]2(C)C(c3cccnc3)=CC[C@@H]12 [ABIRATERONE]
In short, it runs like this:
as §1

On to HS578T BREAST, for which the “area under dose-response curve” value in experiment [1] came out at 2.75; in experiment [2], 2.93; in experiment [3], 3.19; in experiment [4], 3.13; in experiment [5], 3.76.
For the test system HMT3552 BREAST, the results for the “area under dose-response curve” value in experiment [2] and in experiment [6] were 2.94 and 2.99, respectively.
As for HCC70 BREAST, the “area under dose-response curve” value in experiment [1] came to 3.26; in experiment [2] it was 3.67; in experiment [7], 3.59; in experiment [6], 3.69; in experiment [3] it was 3.28; in experiment [4], 3.82.
Take HCC38 BREAST: the “area under dose-response curve” value in experiment [1] came to 3.21; in experiment [2] it was 2.19; in experiment [7] it was 4.04; in experiment [6], 2.93; in experiment [4], 3.03; in experiment [5] it was 3.17.
Regarding G292 BONE, the “area under dose-response curve” value was 2.88 in experiment [1]; 3.17 in experiment [2]; 3.4 in experiment [7]; 2.74 in experiment [6]; 3.3 in experiment [3]; 3.33 in experiment [4]. Further, the “area under dose-response curve” value in experiment [5] is 3.14.
As to HMLE3 BREAST, the “area under dose-response curve” value stood at 2.86 in experiment [1]; 3.42 in experiment [7]; 2.9 in experiment [6]; 3.12 in experiment [3]; 3.15 in experiment [5].

Values taken from the supplement of paper PMC6045584.
